Data taken from paper PMC6009937, “Comparing hydrazine-derived reactive groups as inhibitors of quinone-dependent amine oxidases” (Journal of Enzyme Inhibition and Medicinal Chemistry, 2017).
“And” between values parts separate entries of the source, which are not always exact repeats. Equal values may be shown once. Read-outs that look alike come from different tables or passages of the source.

What was measured:
[1] = target: T1, lentil seedling diamine oxidase (LSDAO) (Lens culinaris, UniProt P49252); assay: LSDAO activity assay (Amplex UltraRed/HRP fluorescence) after preincubation of enzyme with inhibitor; format: biochemical
T1 construct: Eight-day-old lentil seedlings (Lens esculenta) were blended and extracted; from tissue; host or cells: eight-day-old lentil seedlings (Lens esculenta)
T1 sequence (P49252 19-667): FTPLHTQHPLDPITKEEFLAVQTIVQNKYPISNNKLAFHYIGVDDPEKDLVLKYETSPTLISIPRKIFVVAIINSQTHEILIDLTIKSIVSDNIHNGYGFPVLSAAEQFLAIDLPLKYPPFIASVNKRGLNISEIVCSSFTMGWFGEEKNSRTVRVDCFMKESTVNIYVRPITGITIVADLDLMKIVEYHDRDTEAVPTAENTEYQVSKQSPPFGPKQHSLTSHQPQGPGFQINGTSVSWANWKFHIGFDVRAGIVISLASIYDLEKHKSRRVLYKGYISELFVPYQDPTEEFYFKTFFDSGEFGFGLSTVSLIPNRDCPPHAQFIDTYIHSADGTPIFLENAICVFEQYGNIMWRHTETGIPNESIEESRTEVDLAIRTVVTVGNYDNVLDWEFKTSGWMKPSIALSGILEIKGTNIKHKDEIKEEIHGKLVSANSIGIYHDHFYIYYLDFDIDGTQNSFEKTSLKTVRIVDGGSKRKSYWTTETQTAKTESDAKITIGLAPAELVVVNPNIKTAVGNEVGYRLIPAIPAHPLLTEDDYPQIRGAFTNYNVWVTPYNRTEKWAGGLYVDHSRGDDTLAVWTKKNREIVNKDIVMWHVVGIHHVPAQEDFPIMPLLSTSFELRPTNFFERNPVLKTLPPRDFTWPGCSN
Method: The LSDAO extraction process was carried out at 4 °C according to the method of Floris et al.[30] with slight modifications. Eight-day-old lentil seedlings (Lens esculenta) were blended and extracted with phosphate buffer (5 mM, pH 6.0, buffer A). Ammonium sulfate (230 g/L, 40% saturation) was used to precipitate contaminants, and then additional ammonium sulfate (125 g/L, 60% saturation) was used to precipitate the LSDAO. The crude precipitate was redissolved, dialyzed against buffer A, applied to a DEAE column, and eluted with buffer A. Active fractions were adjusted to pH 6.5, applied to a CM resin column, and eluted with 5 mM phosphate buffer, pH 6.5. Active fractions were concentrated and the buffer was changed to 10 mM phosphate, pH 7.0 before the protein was applied to a Sephacryl S-300 column and eluted with the same buffer. The concentration of the LSDAO dimer was determined from its absorption at 278 nm in 0.1 M phosphate buffer[31] using a molar extinction coefficient of 2.45 × 10^5 M^−1 cm^−1.
(§1) The activity assay is adopted from the method described by Palamakumbura et al.[35]. Enzyme and inhibitor were incubated at 37 °C for the desired inhibition time, diluted into the assay mixture, and analyzed by fluorescence (Agilent Technologies Cary Eclipse Fluorescence Spectrometer, Cary Eclipse Software, 37 °C, λex = 568 and λem = 581 nm). The assay was carried out in boric acid buffer (50 mM, pH 8.2) with 1.2 M urea for LOX or in phosphate buffer (0.1 M, pH = 7.0) for LSDAO. The final reagent concentrations in the assay mixture were 10 mM cadaverine, 10 μM Amplex UltraRed (Life Technologies, Carlsbad, CA), and 1 U/mL horse radish peroxidase (Amresco, Solon, OH).
(§2) The enzyme activity, which is proportional to the rate of increase in fluorescence, was measured for each experiment. Residual activity was calculated by dividing each rate by a maximum rate determined in the absence of inhibitor such that [residual activity] = ([rate with inhibitor] – [baseline rate])/([maximum rate] – [baseline rate]). […] The residual activities from replicate experiments were averaged. For each inhibitor concentration, log([average residual activity]) was plotted against inhibition time. Linear lines of best fit forced through the origin were calculated for each data set using Graphpad Prism 5.0b (La Jolla, CA). For each inhibitor, the slopes of these lines (min^−1) were plotted as –1/slope against 1/[inhibitor concentration] to produce a Kitz–Wilson plot.
(§3) To quantify the selectivity of each inhibitor, we defined a numerical “selectivity factor” as the inhibitor's IC50 value for LOX divided by its IC50 value for LSDAO (Figure 3(C)).
From the slopes and y-intercepts of these lines, the kinetic parameters KI (the reversible binding constant) and k2 (the rate constant for irreversible reaction) (Figure 5(A)) can be calculated.

Lysyl oxidase (LOX) = target: T2, Lysyl oxidase (LOX) (Bos taurus, UniProt P33072); assay: LOX activity assay (Amplex UltraRed/HRP fluorescence) after preincubation of enzyme with inhibitor; format: biochemical, bovine; conditions: for IC50 / Selectivity factor (LOX IC50 value divided by LSDAO IC50 value): 10-min preincubation; for IC50: 37 °C, read-out: IC50 LOX; for Selectivity factor (LOX IC50 value divided by LSDAO IC50 value): LOX vs LSDAO; for remaining activity at 7 µM: 7 µM inhibitor; for remaining activity at 7 µM / remaining activity at 20 µM / remaining activity at 100 µM / remaining activity at 40 µM / remaining activity at 500 µM: read-out: Average Percent Activity Remaining, LOX; for remaining activity at 20 µM: 20 µM inhibitor; for remaining activity at 100 µM: 100 µM inhibitor; for LOX k2 (range) / KI (inactivation): Kitz-Wilson analysis; for LOX k2 (range): rate constant for irreversible reaction; for KI (inactivation): reversible binding constant, read-out: LOX KI^-1 (range); for remaining activity at 40 µM: 40 µM inhibitor; for remaining activity at 500 µM: 500 µM inhibitor
T2 construct: LOX was isolated from bovine aorta; from tissue; host or cells: bovine aorta
T2 sequence (P33072 170-418): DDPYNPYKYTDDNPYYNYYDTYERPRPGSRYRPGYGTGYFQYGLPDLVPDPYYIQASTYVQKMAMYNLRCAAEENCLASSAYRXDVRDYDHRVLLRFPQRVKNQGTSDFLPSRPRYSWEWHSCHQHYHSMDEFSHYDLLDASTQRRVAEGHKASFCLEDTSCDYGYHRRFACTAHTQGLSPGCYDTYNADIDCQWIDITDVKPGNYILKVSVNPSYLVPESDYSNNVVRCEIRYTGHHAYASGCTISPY
Method: LOX was isolated from bovine aorta at 4 °C using slight modifications of previously published procedures. All steps were carried out at in 16 mM phosphate, pH 7.8 (buffer B). After blending the aorta in buffer B containing 400 mM NaCl and 1 mM EDTA to remove soluble contaminants, the enzyme was extracted with buffer B containing 4 M urea and 1 mM EDTA. The crude enzyme extract was filtered, diluted with an equal volume of buffer B to obtain a urea concentration of 2 M, and loaded onto a DEAE column. After washing with buffer B containing 400 mM NaCl, the enzyme was eluted with buffer B containing 400 mM NaCl and 6 M urea. The urea concentration was reduced to 4 M by adding buffer B, and the solution was added to a slurry of ceramic hydroxyapatite in buffer B containing 4 M urea. After stirring, the supernatant was removed by filtration and dialyzed overnight against buffer B. The solution was added to a slurry of ceramic hydroxyapatite in buffer B, washed with small portions of 1 M phosphate and then buffer B, and then eluted with buffer B containing 6 M urea and 500 mM NaCl. After concentration to about 20 mL, the protein was applied to a Sephacryl S-200 gel filtration column preequilibrated with buffer B containing 50 mM NaCl, 1 mM EDTA, and 6 M urea and eluted with the same buffer. Active fractions were concentrated to 1 mL. Total protein concentration for 6 M urea solutions[33] was determined by its absorption at 280 nm using a molar extinction coefficient of 8.39 × 10^4 M^−1 cm ^−1.
as §1, §2, §3

LOX [2] = system: LOX; design: method as in PMID 2888772; conditions: chick embryos; cited from earlier work
LOX [3] = system: LOX; design: method as in PMID 2571459; conditions: inhibition time not specified; read-out: IC50 LOX in vitro; cited from earlier work
rat lysyl oxidase = system: rat lysyl oxidase; design: method as in PMID 19524603; conditions: cited from earlier work
[4] = 4 min, read-out: Average Percent Activity Remaining, LSDAO
[5] = 10 min, read-out: Average Percent Activity Remaining, LSDAO
[6] = Kitz-Wilson analysis, rate constant for irreversible reaction

What does the source list for CCCCCCCNN [compound 4]?
IC50 [1]: 0.03 µM; remaining activity at 0.03 µM [1, 4]: 81%; remaining activity at 0.08 µM [1, 4]: 60%; remaining activity at 0.1 µM [1, 4]: 43%; remaining activity at 0.2 µM [1, 4]: 22%; remaining activity at 0.5 µM [1, 4]: 1%; remaining activity at 1 µM [1, 4]: 1%; remaining activity at 0.03 µM [1, 5]: 45%; remaining activity at 0.08 µM [1, 5]: 15%; remaining activity at 0.1 µM [1, 5]: 7%; remaining activity at 0.2 µM [1, 5]: 2%; LSDAO k2 (range) [1, 6]: 1.0 (0.75–1.6) min^-1 and 1.0 min^-1; KI (inactivation) ([1]; read-out: LSDAO KI^-1 (range); Kitz-Wilson analysis, reversible binding constant): 0.9 µM; IC50 (Lysyl oxidase (LOX)): 40 µM; Selectivity factor (LOX IC50 value divided by LSDAO IC50 value) (Lysyl oxidase (LOX)): 1300; remaining activity at 7 µM (Lysyl oxidase (LOX); 4 min): 89%; remaining activity at 20 µM (Lysyl oxidase (LOX); 4 min): 82%; remaining activity at 100 µM (Lysyl oxidase (LOX); 4 min): 59%; remaining activity at 7 µM (Lysyl oxidase (LOX); 10 min): 83%; remaining activity at 20 µM (Lysyl oxidase (LOX); 10 min): 63%; remaining activity at 100 µM (Lysyl oxidase (LOX); 10 min): 30%; LOX k2 (range) (Lysyl oxidase (LOX)): 0.079 (0.073–0.087) min^-1 and 0.07–0.09 min^-1 and 0.079 min^-1; KI (inactivation) (Lysyl oxidase (LOX)): 57 µM

For CCCCNC(=O)NN [compound 5], which IC50 ([1]; 10-min preincubation, 37 °C; read-out: IC50 LSDAO) is on record?
The IC50 was 4 µM.

And the remaining activity at 1 µM [1, 4]?
The remaining activity at 1 µM was 89%.

What about the remaining activity at 2 µM [1, 4] of the same molecule?
Its remaining activity at 2 µM is 78%.

And the remaining activity at 4 µM [1, 4]?
Its remaining activity at 4 µM is 69%.

What about the remaining activity at 20 µM [1, 4] of the same molecule?
Its remaining activity at 20 µM is 41%.

And the remaining activity at 100 µM [1, 4]?
Its remaining activity at 100 µM is 1%.

And the remaining activity at 1 µM [1, 5]?
The remaining activity at 1 µM was 84%.

And the remaining activity at 2 µM [1, 5]?
The remaining activity at 2 µM was 71%.

And the remaining activity at 4 µM [1, 5]?
The remaining activity at 4 µM was 50%.

What about the remaining activity at 20 µM [1, 5] of the same molecule?
Its remaining activity at 20 µM is 7%.

And the “LSDAO k2 (range)” value [1, 6]?
The value was 0.91 (0.50–5.0) min^-1 and 0.91 min^-1.

And the KI (inactivation) ([1]; Kitz-Wilson analysis, reversible binding constant; read-out: LSDAO KI^-1 (range))?
The KI (inactivation) was 112 µM.

What about the IC50 (Lysyl oxidase (LOX)) of the same molecule?
Its IC50 is 100 µM.

And the “Selectivity factor (LOX IC50 value divided by LSDAO IC50 value)” value (Lysyl oxidase (LOX))?
The value was 25.

What about the remaining activity at 40 µM (Lysyl oxidase (LOX); 4 min) of the same molecule?
The remaining activity at 40 µM was 93%.

And the remaining activity at 100 µM (Lysyl oxidase (LOX); 4 min)?
Its remaining activity at 100 µM is 76%.

What about the remaining activity at 500 µM (Lysyl oxidase (LOX); 4 min) of the same molecule?
The remaining activity at 500 µM was 35%.

And the remaining activity at 40 µM (Lysyl oxidase (LOX); 10 min)?
Its remaining activity at 40 µM is 78%.

What about the remaining activity at 100 µM (Lysyl oxidase (LOX); 10 min) of the same molecule?
Its remaining activity at 100 µM is 52%.

And the remaining activity at 500 µM (Lysyl oxidase (LOX); 10 min)?
Its remaining activity at 500 µM is 6%.

And the “LOX k2 (range)” value (Lysyl oxidase (LOX))?
Its value is over 0.50 min⁻¹.

And the KI (inactivation) (Lysyl oxidase (LOX))?
Its KI (inactivation) is over 1000 µM.

For NNC(=O)c1ccncc1 [hydrazide of isonicotinic acid], which “Inhibition of LOX in vivo” value (LOX [2]) is on record?
Its value is “can partially inhibit LOX”.

Which IC50 (LOX [3]) does the source give for NNC(N)=O [semicarbazide] here?
The IC50 was 30 µM.

What about the “Inhibition of lysyl oxidase in vivo compared to BAPN” value (rat lysyl oxidase) of the same molecule?
Its value is “nearly as effective as BAPN”.
